The record followed here is ChEMBL document CHEMBL4043225, “Identification of potent, nonabsorbable agonists of the calcium-sensing receptor for GI-specific administration” (Bioorg Med Chem Lett, 2017).

Data set [1] concerns the target T1, Extracellular calcium-sensing receptor (Homo sapiens) (UniProt P41180).
T1 sequence (whole entry): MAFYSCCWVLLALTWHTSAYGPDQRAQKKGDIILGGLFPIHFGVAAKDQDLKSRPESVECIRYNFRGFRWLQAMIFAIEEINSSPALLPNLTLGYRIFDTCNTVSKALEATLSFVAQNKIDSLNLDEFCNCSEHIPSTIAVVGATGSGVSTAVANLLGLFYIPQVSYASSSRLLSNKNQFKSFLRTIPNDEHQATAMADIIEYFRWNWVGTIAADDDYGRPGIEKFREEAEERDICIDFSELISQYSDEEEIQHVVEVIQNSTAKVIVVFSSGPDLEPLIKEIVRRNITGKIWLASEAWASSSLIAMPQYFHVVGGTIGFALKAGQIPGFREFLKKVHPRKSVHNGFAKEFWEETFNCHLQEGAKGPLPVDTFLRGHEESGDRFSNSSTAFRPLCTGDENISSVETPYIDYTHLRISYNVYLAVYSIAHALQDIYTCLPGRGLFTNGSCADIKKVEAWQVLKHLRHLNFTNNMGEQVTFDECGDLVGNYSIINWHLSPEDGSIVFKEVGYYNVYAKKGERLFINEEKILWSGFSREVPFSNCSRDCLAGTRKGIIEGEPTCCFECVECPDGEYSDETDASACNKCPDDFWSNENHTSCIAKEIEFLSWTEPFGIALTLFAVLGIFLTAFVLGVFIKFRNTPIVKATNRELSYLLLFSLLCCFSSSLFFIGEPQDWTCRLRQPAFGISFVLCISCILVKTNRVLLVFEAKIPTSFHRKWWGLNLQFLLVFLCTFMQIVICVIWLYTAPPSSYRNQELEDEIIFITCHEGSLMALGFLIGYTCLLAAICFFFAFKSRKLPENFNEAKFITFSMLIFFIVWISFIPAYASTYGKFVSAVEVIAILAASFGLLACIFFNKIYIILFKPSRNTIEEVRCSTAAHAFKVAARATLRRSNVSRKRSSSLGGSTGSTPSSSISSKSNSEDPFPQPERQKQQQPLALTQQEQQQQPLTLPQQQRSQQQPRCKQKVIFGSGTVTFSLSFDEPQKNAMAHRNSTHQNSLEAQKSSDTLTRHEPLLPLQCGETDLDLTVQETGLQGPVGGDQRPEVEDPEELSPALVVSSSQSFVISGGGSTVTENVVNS
In words: (§1) Agonist activity at human CaSR expressed in HEK293 cells assessed as increase in intracellular calcium mobilization by fluo-4AM dye based FLIPR assay. It is filed as functional, cell-based. (In general: Calcium flux is commonly read through the fluorescence of an indicator in the cells.)

In data set [2] the target is T2, Extracellular calcium-sensing receptor (Homo sapiens, UniProt P41180).
T2 sequence (P41180 whole entry): T1 sequence (whole entry)
Described as §1. In kind it is functional, cell-based. Conditions: read-out: EC50.

Data set [3] has as its target T3, Extracellular calcium-sensing receptor (Mus musculus) (UniProt Q9QY96).
T3 sequence (whole entry): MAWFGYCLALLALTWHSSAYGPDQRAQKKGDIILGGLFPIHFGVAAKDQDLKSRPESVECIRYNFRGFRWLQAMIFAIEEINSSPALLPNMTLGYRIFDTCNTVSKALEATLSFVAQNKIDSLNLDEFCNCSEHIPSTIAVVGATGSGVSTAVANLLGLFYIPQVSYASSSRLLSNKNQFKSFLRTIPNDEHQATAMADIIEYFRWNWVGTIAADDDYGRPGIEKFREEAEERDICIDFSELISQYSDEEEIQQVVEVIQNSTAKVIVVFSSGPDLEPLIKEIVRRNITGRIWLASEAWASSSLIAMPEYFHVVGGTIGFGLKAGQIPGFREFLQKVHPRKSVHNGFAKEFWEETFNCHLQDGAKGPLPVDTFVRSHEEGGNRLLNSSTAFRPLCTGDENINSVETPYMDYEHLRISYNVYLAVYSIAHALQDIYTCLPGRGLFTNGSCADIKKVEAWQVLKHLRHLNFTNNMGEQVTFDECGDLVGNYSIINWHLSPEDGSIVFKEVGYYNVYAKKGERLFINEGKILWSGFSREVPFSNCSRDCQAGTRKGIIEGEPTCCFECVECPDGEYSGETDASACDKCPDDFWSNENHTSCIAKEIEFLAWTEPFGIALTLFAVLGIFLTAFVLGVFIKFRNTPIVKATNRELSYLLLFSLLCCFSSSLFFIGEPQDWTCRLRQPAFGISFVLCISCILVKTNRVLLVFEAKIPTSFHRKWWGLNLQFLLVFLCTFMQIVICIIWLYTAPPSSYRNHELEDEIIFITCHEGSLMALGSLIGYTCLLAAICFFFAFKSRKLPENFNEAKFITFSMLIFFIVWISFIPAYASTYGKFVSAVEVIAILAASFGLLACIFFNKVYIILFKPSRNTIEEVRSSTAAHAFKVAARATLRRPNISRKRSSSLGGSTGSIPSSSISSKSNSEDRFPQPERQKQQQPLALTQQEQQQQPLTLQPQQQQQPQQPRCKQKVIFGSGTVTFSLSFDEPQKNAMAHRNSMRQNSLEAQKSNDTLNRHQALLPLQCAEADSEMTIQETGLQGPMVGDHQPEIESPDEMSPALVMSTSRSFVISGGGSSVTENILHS
As to the kind of experiment: (§2) Agonist activity at mouse CaSR expressed in HEK293 cells assessed as increase in intracellular calcium mobilization by fluo-4AM dye based FLIPR assay. It is filed as functional, cell-based.

Data set [4] has as its target T4, Extracellular calcium-sensing receptor (Mus musculus, UniProt Q9QY96).
T4 sequence (Q9QY96 whole entry): T3 sequence (whole entry)
The description is as §2. It is filed as functional, cell-based.

Data set [5] can be described thus: Half-life in Sprague-Dawley rat cecal homogenates at 10 uM by LC-MS/MS analysis. It is filed as ADME, tissue-based, Caecum.
Data set [6] in a line: Cmax in CD rat portal vein at 30 mg/kg, po administered via gavage. In kind it is ADME, organism-based. Details: dose 30 mg/kg, route oral.
Data set [7] can be described thus: Cmax in CD rat systemic circulation at 30 mg/kg, po administered via gavage. It is filed as ADME, organism-based. Details: dose 30 mg/kg, route oral.
Data set [8] in a line: Drug recovery in CD rat feces at 30 mg/kg, po administered via gavage measured by LC-MS/MS analysis. In kind it is ADME, organism-based. The settings on record: read-out: Drug recovery.
The nature of data set [9]: AUC in CD rat portal vein at 10 mg/kg, po administered via gavage. It is filed as ADME, organism-based.
Another data set concerns Rattus norvegicus. In words: Unbound Cmax in CD rat systemic circulation at 10 mg/kg, po administered via gavage. The settings on record: in vivo. In kind it is ADME, organism-based.
The nature of data set [10]: Aqueous solubility of the compound in FASSIF. It is filed as physicochemical.
Data set [11] in a line: Aqueous solubility of the compound in SGF. In kind it is physicochemical.

By EC50 is commonly meant the concentration that produces a half-maximal response. The term half-life denotes the time in which the quantity being followed falls by half. Low readings indicate fast loss, high ones slow loss. One may read the Cmax as the highest concentration seen after dosing. Usually AUC stands for the area under the concentration-time curve, a measure of exposure. A low value points to low exposure. As usually defined, the solubility is how much of the substance goes into solution per volume. Low values mean little dissolved substance, high ones much dissolved substance. As for `C[C@@H](N[C@H]1CCN(c2ccc(C(=O)NCCCN3CCC(C(=O)O)CC3)cc2)C1)c1cccc2ccccc12`, the %max in data set [1] was 84 to 93%; in data set [3], 62%. The EC50 in data set [2] was 50 nM; in data set [4] it was 251 nM. Moreover, the half-life at 10 µM in data set [5] is over 12 h. The Cmax turned out to be 57 ng/mL in data set [6] and 48 ng/mL in data set [7]. Also, the dose excreted in data set [8] was 86.3%. The compound further returned an AUC in [9] of 265 ng·h/mL. The compound also registered a fCmax with Rattus norvegicus of 3 ng/mL. In addition, the solubility in data set [10] and in data set [11] was over 1000 µg/mL each time.
